The source of these data is paper PMC8645336, “Benchmarking a highly selective USP30 inhibitor for enhancement of mitophagy and pexophagy” (Life Science Alliance, 2021).

Common to all, as to experiment: biochemical
Common to all, as to design: Ubiquigent DUB profiler selectivity panel, remaining enzyme activity as % of control
What all share (settings): read-out: % of control remaining

One test deals with USP20 (Homo sapiens, UniProt Q9Y2K6). The method in brief:
(§1)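 CMPD-39 selectivity was profiled at 1-100 μM across >40 DUBs. Cellular engagement used 2 h CMPD-39 pretreatment, then HA-Ub-PA probe for 10 min at 37°C, with USP30 band shift on immunoblot. TOMM20 ubiquitylation was blotted in YFP-PRKN hTERT-RPE1 cells after 1 h antimycin A/oligomycin A (1 μM each).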

Another test has as its target T1, USP35** (Homo sapiens, UniProt Q9P2H5).
T1 sequence (Q9P2H5 1-1018): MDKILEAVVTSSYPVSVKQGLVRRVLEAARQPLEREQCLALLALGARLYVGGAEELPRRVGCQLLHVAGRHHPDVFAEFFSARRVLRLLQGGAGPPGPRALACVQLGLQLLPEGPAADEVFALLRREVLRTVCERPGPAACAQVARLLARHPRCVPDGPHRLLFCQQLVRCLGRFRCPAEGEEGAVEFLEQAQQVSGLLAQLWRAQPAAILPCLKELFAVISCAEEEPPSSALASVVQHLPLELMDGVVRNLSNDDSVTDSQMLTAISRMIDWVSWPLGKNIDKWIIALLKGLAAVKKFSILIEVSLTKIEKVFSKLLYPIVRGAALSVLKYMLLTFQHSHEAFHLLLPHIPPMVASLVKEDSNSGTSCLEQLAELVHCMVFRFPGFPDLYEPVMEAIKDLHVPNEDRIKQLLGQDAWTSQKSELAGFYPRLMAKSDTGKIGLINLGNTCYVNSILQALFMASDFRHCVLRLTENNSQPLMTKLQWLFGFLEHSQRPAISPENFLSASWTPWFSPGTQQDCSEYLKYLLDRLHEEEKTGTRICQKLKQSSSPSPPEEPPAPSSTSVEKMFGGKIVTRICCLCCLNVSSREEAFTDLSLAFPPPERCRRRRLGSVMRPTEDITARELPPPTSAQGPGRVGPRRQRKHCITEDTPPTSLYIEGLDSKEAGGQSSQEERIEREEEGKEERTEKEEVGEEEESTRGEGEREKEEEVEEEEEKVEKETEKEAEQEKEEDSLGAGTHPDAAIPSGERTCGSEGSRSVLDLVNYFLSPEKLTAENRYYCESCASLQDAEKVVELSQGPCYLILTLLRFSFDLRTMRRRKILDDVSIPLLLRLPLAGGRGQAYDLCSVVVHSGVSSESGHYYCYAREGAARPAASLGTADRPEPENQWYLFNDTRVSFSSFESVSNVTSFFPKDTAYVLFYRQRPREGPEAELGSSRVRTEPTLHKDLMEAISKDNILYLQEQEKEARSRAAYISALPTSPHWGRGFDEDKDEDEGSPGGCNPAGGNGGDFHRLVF
The method in brief: as §1

The target of the next test is T2, USP4 (Homo sapiens, UniProt Q13107).
T2 sequence (Q13107 1-963): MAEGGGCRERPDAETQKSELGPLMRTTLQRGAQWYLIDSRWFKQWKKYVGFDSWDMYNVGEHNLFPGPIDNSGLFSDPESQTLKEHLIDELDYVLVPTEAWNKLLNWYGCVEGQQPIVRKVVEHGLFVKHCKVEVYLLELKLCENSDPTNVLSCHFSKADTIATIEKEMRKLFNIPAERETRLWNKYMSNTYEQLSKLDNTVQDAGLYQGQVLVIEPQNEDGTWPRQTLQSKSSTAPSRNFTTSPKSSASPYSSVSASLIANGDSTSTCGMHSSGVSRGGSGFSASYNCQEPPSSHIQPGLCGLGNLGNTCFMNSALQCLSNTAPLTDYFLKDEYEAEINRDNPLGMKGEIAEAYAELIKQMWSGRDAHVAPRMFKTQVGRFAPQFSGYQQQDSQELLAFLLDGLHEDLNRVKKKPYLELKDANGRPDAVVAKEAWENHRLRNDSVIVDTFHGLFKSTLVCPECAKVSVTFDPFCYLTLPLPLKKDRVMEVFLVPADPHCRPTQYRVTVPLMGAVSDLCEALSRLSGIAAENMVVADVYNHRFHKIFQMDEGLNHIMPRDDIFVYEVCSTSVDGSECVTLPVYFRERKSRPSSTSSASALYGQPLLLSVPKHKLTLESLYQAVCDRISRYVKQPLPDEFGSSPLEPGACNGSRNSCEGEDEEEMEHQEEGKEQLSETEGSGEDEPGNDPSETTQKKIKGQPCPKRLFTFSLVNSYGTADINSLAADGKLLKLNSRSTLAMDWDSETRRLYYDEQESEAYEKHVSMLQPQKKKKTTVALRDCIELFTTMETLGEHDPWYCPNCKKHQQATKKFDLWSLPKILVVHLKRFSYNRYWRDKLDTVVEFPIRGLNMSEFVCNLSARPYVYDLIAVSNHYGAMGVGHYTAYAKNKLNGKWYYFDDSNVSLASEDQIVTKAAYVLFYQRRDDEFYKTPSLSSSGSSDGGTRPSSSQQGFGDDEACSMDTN
In outline: as §1

Chain of USP20 (Q9Y2K6 whole entry): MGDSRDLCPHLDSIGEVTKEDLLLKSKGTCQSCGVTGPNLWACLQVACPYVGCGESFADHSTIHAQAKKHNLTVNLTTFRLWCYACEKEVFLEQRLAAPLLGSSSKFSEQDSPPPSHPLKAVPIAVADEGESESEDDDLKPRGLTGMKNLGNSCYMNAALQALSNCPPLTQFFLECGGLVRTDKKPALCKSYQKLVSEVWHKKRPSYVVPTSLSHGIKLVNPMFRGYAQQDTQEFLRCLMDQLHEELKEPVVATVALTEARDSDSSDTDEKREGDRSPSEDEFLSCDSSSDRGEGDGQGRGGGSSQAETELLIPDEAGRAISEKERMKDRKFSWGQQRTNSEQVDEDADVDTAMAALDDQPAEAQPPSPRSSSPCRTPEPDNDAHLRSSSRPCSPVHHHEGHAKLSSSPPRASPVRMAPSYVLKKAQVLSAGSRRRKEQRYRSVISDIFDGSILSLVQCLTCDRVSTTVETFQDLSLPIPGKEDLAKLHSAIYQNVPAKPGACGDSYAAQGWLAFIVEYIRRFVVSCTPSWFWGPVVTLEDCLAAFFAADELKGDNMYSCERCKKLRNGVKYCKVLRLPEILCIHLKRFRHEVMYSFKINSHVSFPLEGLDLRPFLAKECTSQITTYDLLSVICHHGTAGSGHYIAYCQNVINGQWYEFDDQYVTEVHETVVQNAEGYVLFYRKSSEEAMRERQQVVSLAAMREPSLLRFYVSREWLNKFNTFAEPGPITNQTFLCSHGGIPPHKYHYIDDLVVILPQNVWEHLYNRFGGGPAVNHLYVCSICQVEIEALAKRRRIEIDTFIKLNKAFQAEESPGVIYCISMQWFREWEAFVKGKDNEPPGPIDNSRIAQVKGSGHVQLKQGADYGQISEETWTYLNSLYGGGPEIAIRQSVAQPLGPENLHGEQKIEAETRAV

On to `CC(C)(C)NS(=O)(=O)c1ccc(NC(=O)[C@H](Cc2ccccc2)NC(=O)c2ccc(F)cc2)cc1` [compound 39, CMPD-39], for which the remaining activity at 1 µM turned out to be 113% at USP20, 113% at USP35** and 107% on USP4. For the same compound, the remaining activity at 10 µM at USP20 was 110%; on USP35**, 101%; at USP4, 103%. In addition, the remaining activity at 100 µM at USP20 is 155%; at USP35** it was 102%; at USP4, 98.9%.
